Results as given in ChEMBL document CHEMBL1127781, “Antitumor agents. 7. Synthesis and antitumor activity of novel hexacyclic camptothecin analogues” (J Med Chem, 1994).
≈ marks a conversion by molar mass, not a printed value.

Experiments:
P388 [1] = assay: Tested in vitro for the inhibition of P388 (mouse leukemia) cell line by MTT assay; type: functional, cell-based
HOC-21 cell line = assay: Tested in vitro for the inhibition of HOC-21(human ovarian cancer) cell line by MTT assay; type: functional, cell-based
QG-56 = assay: Tested in vitro for the inhibition of QG-56 (human lung squamous cell carcinoma) cell line by MTT assay; type: functional, cell-based
[2] = Tested for (median survival time of treated/control animals) x100 at dosage of 30 mg/kg.; type: functional
Mus musculus [3] = assay: Tested for (median survival time of treated/control animals) x100 at dosage of 240 mg/kg.; type: functional
[4] = Tested for (median survival time of treated/control animals) x100 at dosage of 480 mg/kg.; type: functional
Mus musculus [5] = assay: Tested for (median survival time of treated/control animals) x100 at dosage of 60 mg/kg.; type: functional
Mus musculus [6] = assay: Tested for (median survival time of treated/control animals) x100 at dosage of 120 mg/kg.; type: functional
[7] = Tested for median survival time of treated/control animals) x100 at dosage of 120 mg/kg.; type: functional
[8] = Tested for median survival time of treated/control animals) x100 at dosage of 30 mg/kg.; type: functional
[9] = Tested for median survival time of treated/control animals) x100 at dosage of 240 mg/kg.; type: functional
[10] = Tested for median survival time of treated/control animals) x100 at dosage of 60 mg/kg.; type: functional
[11] = Tested for median survival time of treated/control animals) x100 at dosage of 480 mg/kg.; type: functional
[12] = Tested for (median survival time of treated/control animals) x100 at dosage of 30 mg/kg; type: functional
[13] = Tested for (median survival time of treated/control animals) x100 at dosage of 60 mg/kg; type: functional
[14] = Tested for (median survival time of treated/control animals) x100 at dosage of 120 mg/kg; type: functional
[15] = Tested for (median survival time of treated/control animals) x100 at dosage of 240 mg/kg; type: functional
P388 [16] = assay: Tested in vitro for the inhibition of P388 (mouse leukemia) cell line by MTT assay; 1.95-6.93 ng/mL; type: functional, cell-based

CC[C@@]1(O)C(=O)OCc2c1cc1n(c2=O)Cc2c-1nc1cccc3c1c2CCCC3
IC50 (P388 [1]): 1.22 ng/mL (≈ 0.00303 µM)
IC50 (HOC-21 cell line): 15.6 ng/mL (≈ 0.0388 µM)
IC50 (QG-56): 1.73 ng/mL (≈ 0.0043 µM)

CCC1(O)C(=O)OCc2c1cc1n(c2=O)Cc2c-1nc1cccc(COC(C)=O)c1c2COC(C)=O (stereo not given)
IC50 (P388 [1]): 40.5 ng/mL (≈ 0.0822 µM)
IC50 (HOC-21 cell line): > 500 ng/mL
IC50 (QG-56): 7.41 ng/mL (≈ 0.015 µM)

CC[C@@]1(O)C(=O)OCc2c1cc1n(c2=O)Cc2c-1nc1cccc3c1c2COC3
IC50 (P388 [1]): 0.95 ng/mL (≈ 0.00243 µM)
IC50 (HOC-21 cell line): 12.3 ng/mL (≈ 0.0315 µM)
IC50 (QG-56): 1.14 ng/mL (≈ 0.00292 µM)

CCC1(O)C(=O)OCc2c1cc1n(c2=O)Cc2c-1nc1cccc(CN)c1c2C (stereo not given)
IC50 (P388 [1]): 5.02 ng/mL (≈ 0.0128 µM)
IC50 (HOC-21 cell line): 44.8 ng/mL (≈ 0.114 µM)
IC50 (QG-56): 6.36 ng/mL (≈ 0.0162 µM)

CCC1(O)C(=O)OCc2c1cc1n(c2=O)Cc2c-1nc1ccc(O)c3c1c2CCO3 (racemic)
T/C [2]: 147%
T/C (Mus musculus [3]): 20%
T/C [4]: 19%
T/C (Mus musculus [5]): 221%
IC50 (HOC-21 cell line): 79 ng/mL (≈ 0.194 µM)
T/C (Mus musculus [6]): 233%
IC50 (QG-56): 1.1 ng/mL (≈ 0.00271 µM)

CCC1(O)C(=O)OCc2c1cc1n(c2=O)Cc2c-1nc1ccc(O)c3c1c2CCC3 (racemic)
T/C [7]: 354%
T/C [8]: 182%
T/C [9]: >392%
IC50 (P388 [1]): 3.8 ng/mL (≈ 0.0094 µM)
T/C [10]: 201%
IC50 (HOC-21 cell line): 26.4 ng/mL (≈ 0.0653 µM)
T/C [11]: 88.5%
IC50 (QG-56): 0.5 ng/mL (≈ 0.00124 µM)

CC[C@@]1(O)C(=O)OCc2c1cc1n(c2=O)Cc2cc3ccccc3nc2-1 [CAMPTOTHECIN]
T/C [12]: 130%
T/C [13]: 142%
T/C [14]: 176%
IC50 (P388 [1]): 4.74 ng/mL (≈ 0.0136 µM)
T/C [15]: 144%
IC50 (HOC-21 cell line): 14.7 ng/mL (≈ 0.0422 µM)
IC50 (QG-56): 4.63 ng/mL (≈ 0.0133 µM)

CC[C@@]1(O)C(=O)OCc2c1cc1n(c2=O)Cc2c-1nc1cccc(C)c1c2C
IC50 (P388 [1]): 3.76 ng/mL (≈ 0.00999 µM)
IC50 (HOC-21 cell line): > 500 ng/mL
IC50 (QG-56): 0.6 ng/mL (≈ 0.00159 µM)

CCC1(O)C(=O)OCc2c1cc1n(c2=O)Cc2c-1nc1ccc(C)c3c1c2CCN3 (racemic)
T/C (Mus musculus [3]): 174%
T/C [4]: 180%
IC50 (HOC-21 cell line): 41.8 ng/mL (≈ 0.104 µM)
T/C (Mus musculus [6]): 207%
IC50 (QG-56): 1.68 ng/mL (≈ 0.00416 µM)

CCC1(O)C(=O)OCc2c1cc1n(c2=O)Cc2c-1nc1ccc(C)c3c1c2CCO3 (racemic)
T/C (Mus musculus [3]): 376%
IC50 (P388 [1]): 4.5 ng/mL (≈ 0.0111 µM)
T/C [4]: >376%
T/C (Mus musculus [5]): 260%
IC50 (HOC-21 cell line): 41.9 ng/mL (≈ 0.104 µM)
T/C (Mus musculus [6]): 273%
IC50 (QG-56): 1.38 ng/mL (≈ 0.00341 µM)

CC[C@@]1(O)C(=O)OCc2c1cc1n(c2=O)Cc2c-1nc1ccc(C)c3c1c2CCC3
IC50 (P388 [1]): 0.78 ng/mL (≈ 0.00194 µM)
IC50 (HOC-21 cell line): 5.88 ng/mL (≈ 0.0146 µM)
IC50 (QG-56): 0.68 ng/mL (≈ 0.00169 µM)

CCc1c2c(nc3ccc(O)cc13)-c1cc3c(c(=O)n1C2)COC(=O)[C@]3(O)CC [7-ETHYL-10-HYDROXYCAMPTOTHECIN]
T/C [2]: 146%
T/C (Mus musculus [3]): 67%
T/C (Mus musculus [5]): 191%
IC50 (P388 [16]): 6.93 ng/mL (≈ 0.0177 µM)
IC50 (HOC-21 cell line): 123 ng/mL (≈ 0.314 µM)
T/C (Mus musculus [6]): 258%
IC50 (QG-56): 3.17 ng/mL (≈ 0.00808 µM)

CC[C@@]1(O)C(=O)OCc2c1cc1n(c2=O)Cc2c-1nc1ccc(O)c3c1c2CCC3
IC50 (P388 [1]): 1.6 ng/mL (≈ 0.00396 µM)
IC50 (HOC-21 cell line): 12.6 ng/mL (≈ 0.0312 µM)
IC50 (QG-56): 0.26 ng/mL (≈ 0.000643 µM)

CCC1(O)C(=O)OCc2c1cc1n(c2=O)Cc2c-1nc1ccc(C)c3c1c2CCS3 (racemic)
T/C [2]: 205%
T/C [9]: 290%
IC50 (P388 [1]): 3.77 ng/mL (≈ 0.00897 µM)
T/C (Mus musculus [5]): 224%
IC50 (HOC-21 cell line): 35.8 ng/mL (≈ 0.0851 µM)
T/C (Mus musculus [6]): 293%
T/C [11]: >400%
IC50 (QG-56): 3.36 ng/mL (≈ 0.00799 µM)

CCC1(O)C(=O)OCc2c1cc1n(c2=O)Cc2cc3ccccc3nc2-1 (racemic)
T/C [12]: 128%
T/C [13]: 128%
T/C [14]: 148%
T/C [15]: 163%

CCC1(O)C(=O)OCc2c1cc1n(c2=O)Cc2c-1nc1ccc(O)c3c1c2CC3 (racemic)
T/C [2]: 167%
T/C (Mus musculus [3]): 90.9%
IC50 (P388 [1]): 2.22 ng/mL (≈ 0.00569 µM)
T/C [4]: 78.2%
T/C (Mus musculus [5]): 206%
IC50 (HOC-21 cell line): 15.9 ng/mL (≈ 0.0407 µM)
T/C (Mus musculus [6]): 110%
IC50 (QG-56): 1.25 ng/mL (≈ 0.0032 µM)

CC[C@@]1(O)C(=O)OCc2c1cc1n(c2=O)Cc2c-1nc1cccc3c1c2CNC3
IC50 (P388 [1]): 3.39 ng/mL (≈ 0.00871 µM)
IC50 (HOC-21 cell line): 37.8 ng/mL (≈ 0.0969 µM)
IC50 (QG-56): 2.98 ng/mL (≈ 0.00765 µM)
